In the NIST ThermoML archive (doi:10.1016/j.jct.2006.10.017):
± gives the expanded uncertainty stated by the source.

Tests used:
[1] = refractive index (Na D-line) (dimensionless); xn = mol fraction of the nth substance listed; conditions: 101 kPa, Liquid
[2] = xn = mol fraction of the nth substance listed; conditions: 101 kPa, Liquid
[3] = refractive index (Na D-line) (dimensionless); conditions: 101.33 kPa, Liquid
[4] = 101 kPa, Liquid

COS(=O)(=O)[O-].Cn1cc[n+](C)c1 [1,3-dimethylimidazolium methylsulfate] + CCO gave a refractive index ([1]; 293.15 K, x1 = 0.0738) of 1.3881 ± 0.0013, a refractive index ([1]; 293.15 K, x1 = 0.1356) of 1.40426 ± 0.0013 and a refractive index ([1]; 293.15 K, x1 = 0.2275) of 1.42272 ± 0.0013. It also gave a refractive index ([1]; 293.15 K, x1 = 0.3317) of 1.43794 ± 0.0013, a refractive index ([1]; 293.15 K, x1 = 0.429) of 1.44915 ± 0.0013 and a refractive index ([1]; 293.15 K, x1 = 0.5395) of 1.45944 ± 0.0013. For the same molecule, the refractive index ([1]; 293.15 K, x1 = 0.6331) was 1.4665 ± 0.0013, the refractive index ([1]; 293.15 K, x1 = 0.7308) was 1.472 ± 0.0013 and the refractive index ([1]; 293.15 K, x1 = 0.8142) was 1.47624 ± 0.0013. It also gave a refractive index ([1]; 293.15 K, x1 = 0.9081) of 1.48029 ± 0.0013, a refractive index ([1]; 293.15 K, x1 = 0.9512) of 1.48211 ± 0.0013 and a refractive index ([1]; 293.15 K, x1 = 1) of 1.48392 ± 0.0013. For the same molecule, the refractive index ([1]; 298.15 K, x1 = 0.0738) was 1.38734 ± 0.0013, the refractive index ([1]; 298.15 K, x1 = 0.1356) was 1.40398 ± 0.0013 and the refractive index ([1]; 298.15 K, x1 = 0.2275) was 1.42173 ± 0.0013. It also gave a refractive index ([1]; 298.15 K, x1 = 0.3317) of 1.43648 ± 0.0013, a refractive index ([1]; 298.15 K, x1 = 0.429) of 1.44761 ± 0.0013 and a refractive index ([1]; 298.15 K, x1 = 0.5395) of 1.45819 ± 0.0013. The refractive index ([1]; 298.15 K, x1 = 0.6331) was 1.4651 ± 0.0013, the refractive index ([1]; 298.15 K, x1 = 0.7308) was 1.47068 ± 0.0013 and the refractive index ([1]; 298.15 K, x1 = 0.8142) was 1.47489 ± 0.0013. For the same molecule, the refractive index ([1]; 298.15 K, x1 = 0.9081) was 1.47895 ± 0.0013, the refractive index ([1]; 298.15 K, x1 = 0.9512) was 1.48079 ± 0.0013 and the refractive index ([1]; 298.15 K, x1 = 1) was 1.4827 ± 0.0013. It also gave a refractive index ([1]; 303.15 K, x1 = 0.0738) of 1.38689 ± 0.0014, a refractive index ([1]; 303.15 K, x1 = 0.1356) of 1.40322 ± 0.0013 and a refractive index ([1]; 303.15 K, x1 = 0.2275) of 1.42109 ± 0.0013. It also gave a refractive index ([1]; 303.15 K, x1 = 0.3317) of 1.4356 ± 0.0013, a refractive index ([1]; 303.15 K, x1 = 0.429) of 1.44677 ± 0.0013 and a refractive index ([1]; 303.15 K, x1 = 0.5395) of 1.45699 ± 0.0013. It also gave a refractive index ([1]; 303.15 K, x1 = 0.6331) of 1.46385 ± 0.0013, a refractive index ([1]; 303.15 K, x1 = 0.7308) of 1.4694 ± 0.0013 and a refractive index ([1]; 303.15 K, x1 = 0.8142) of 1.47353 ± 0.0013. For the same molecule, the refractive index ([1]; 303.15 K, x1 = 0.9081) was 1.47763 ± 0.0013, the refractive index ([1]; 303.15 K, x1 = 0.9512) was 1.47949 ± 0.0013 and the refractive index ([1]; 303.15 K, x1 = 1) was 1.48129 ± 0.0013. The mass density ([2]; 293.15 K, x1 = 0.0738) was 891.5 ± 0.7 kg/m3, the speed of sound ([2]; 293.15 K, x1 = 0.0738) was 1241 ± 10 m/s and the mass density ([2]; 293.15 K, x1 = 0.1356) was 959.7 ± 0.5 kg/m3. It also gave a speed of sound ([2]; 293.15 K, x1 = 0.1356) of 1305 ± 11 m/s, a mass density ([2]; 293.15 K, x1 = 0.2275) of 1040.6 ± 0.5 kg/m3 and a speed of sound ([2]; 293.15 K, x1 = 0.2275) of 1396 ± 11 m/s. The mass density ([2]; 293.15 K, x1 = 0.3317) was 1111.6 ± 0.8 kg/m3, the speed of sound ([2]; 293.15 K, x1 = 0.3317) was 1490 ± 12 m/s and the mass density ([2]; 293.15 K, x1 = 0.429) was 1163.9 ± 1 kg/m3. It also gave a speed of sound ([2]; 293.15 K, x1 = 0.429) of 1568 ± 12 m/s, a mass density ([2]; 293.15 K, x1 = 0.5395) of 1211.1 ± 1.3 kg/m3 and a speed of sound ([2]; 293.15 K, x1 = 0.5395) of 1642 ± 13 m/s. For the same molecule, the mass density ([2]; 293.15 K, x1 = 0.6331) was 1243.6 ± 1.6 kg/m3, the speed of sound ([2]; 293.15 K, x1 = 0.6331) was 1693 ± 13 m/s and the mass density ([2]; 293.15 K, x1 = 0.7308) was 1272 ± 1.8 kg/m3. The speed of sound ([2]; 293.15 K, x1 = 0.7308) was 1737 ± 13 m/s, the mass density ([2]; 293.15 K, x1 = 0.8142) was 1293 ± 2.1 kg/m3 and the speed of sound ([2]; 293.15 K, x1 = 0.8142) was 1769 ± 14 m/s. It also gave a mass density ([2]; 293.15 K, x1 = 0.9081) of 1313.3 ± 2.4 kg/m3, a speed of sound ([2]; 293.15 K, x1 = 0.9081) of 1800 ± 14 m/s and a mass density ([2]; 293.15 K, x1 = 0.9512) of 1321.7 ± 2.5 kg/m3. The speed of sound ([2]; 293.15 K, x1 = 0.9512) was 1812 ± 14 m/s, the mass density ([2]; 293.15 K, x1 = 1) was 1330.9 ± 2.7 kg/m3 and the speed of sound ([2]; 293.15 K, x1 = 1) was 1826 ± 14 m/s. For the same molecule, the mass density ([2]; 298.15 K, x1 = 0.0738) was 887.4 ± 0.7 kg/m3, the speed of sound ([2]; 298.15 K, x1 = 0.0738) was 1226 ± 10 m/s and the mass density ([2]; 298.15 K, x1 = 0.1356) was 955.7 ± 0.5 kg/m3. The speed of sound ([2]; 298.15 K, x1 = 0.1356) was 1291 ± 11 m/s, the mass density ([2]; 298.15 K, x1 = 0.2275) was 1036.7 ± 0.5 kg/m3 and the speed of sound ([2]; 298.15 K, x1 = 0.2275) was 1383 ± 11 m/s. It also gave a mass density ([2]; 298.15 K, x1 = 0.3317) of 1107.8 ± 0.8 kg/m3, a speed of sound ([2]; 298.15 K, x1 = 0.3317) of 1477 ± 12 m/s and a mass density ([2]; 298.15 K, x1 = 0.429) of 1160.2 ± 1 kg/m3. It also gave a speed of sound ([2]; 298.15 K, x1 = 0.429) of 1555 ± 12 m/s, a mass density ([2]; 298.15 K, x1 = 0.5395) of 1207.5 ± 1.3 kg/m3 and a speed of sound ([2]; 298.15 K, x1 = 0.5395) of 1629 ± 13 m/s. The mass density ([2]; 298.15 K, x1 = 0.6331) was 1239.9 ± 1.6 kg/m3, the speed of sound ([2]; 298.15 K, x1 = 0.6331) was 1681 ± 13 m/s and the mass density ([2]; 298.15 K, x1 = 0.7308) was 1268.4 ± 1.8 kg/m3. It also gave a speed of sound ([2]; 298.15 K, x1 = 0.7308) of 1725 ± 13 m/s, a mass density ([2]; 298.15 K, x1 = 0.8142) of 1289.3 ± 2.1 kg/m3 and a speed of sound ([2]; 298.15 K, x1 = 0.8142) of 1757 ± 13 m/s. For the same molecule, the mass density ([2]; 298.15 K, x1 = 0.9081) was 1309.7 ± 2.4 kg/m3, the speed of sound ([2]; 298.15 K, x1 = 0.9081) was 1787 ± 14 m/s and the mass density ([2]; 298.15 K, x1 = 0.9512) was 1318.1 ± 2.5 kg/m3. For the same molecule, the speed of sound ([2]; 298.15 K, x1 = 0.9512) was 1800 ± 14 m/s, the mass density ([2]; 298.15 K, x1 = 1) was 1327.2 ± 2.7 kg/m3 and the speed of sound ([2]; 298.15 K, x1 = 1) was 1813 ± 14 m/s. The mass density ([2]; 303.15 K, x1 = 0.0738) was 883.3 ± 0.7 kg/m3, the speed of sound ([2]; 303.15 K, x1 = 0.0738) was 1211 ± 10 m/s and the mass density ([2]; 303.15 K, x1 = 0.1356) was 951.7 ± 0.5 kg/m3. The speed of sound ([2]; 303.15 K, x1 = 0.1356) was 1277 ± 10 m/s, the mass density ([2]; 303.15 K, x1 = 0.2275) was 1032.8 ± 0.5 kg/m3 and the speed of sound ([2]; 303.15 K, x1 = 0.2275) was 1370 ± 11 m/s. The mass density ([2]; 303.15 K, x1 = 0.3317) was 1104 ± 0.7 kg/m3, the speed of sound ([2]; 303.15 K, x1 = 0.3317) was 1465 ± 12 m/s and the mass density ([2]; 303.15 K, x1 = 0.429) was 1156.5 ± 1 kg/m3. It also gave a speed of sound ([2]; 303.15 K, x1 = 0.429) of 1542 ± 12 m/s, a mass density ([2]; 303.15 K, x1 = 0.5395) of 1203.8 ± 1.3 kg/m3 and a speed of sound ([2]; 303.15 K, x1 = 0.5395) of 1617 ± 13 m/s. It also gave a mass density ([2]; 303.15 K, x1 = 0.6331) of 1236.3 ± 1.5 kg/m3, a speed of sound ([2]; 303.15 K, x1 = 0.6331) of 1668 ± 13 m/s and a mass density ([2]; 303.15 K, x1 = 0.7308) of 1264.8 ± 1.8 kg/m3. It also gave a speed of sound ([2]; 303.15 K, x1 = 0.7308) of 1713 ± 13 m/s, a mass density ([2]; 303.15 K, x1 = 0.8142) of 1285.7 ± 2.1 kg/m3 and a speed of sound ([2]; 303.15 K, x1 = 0.8142) of 1745 ± 13 m/s. The mass density ([2]; 303.15 K, x1 = 0.9081) was 1306.1 ± 2.4 kg/m3, the speed of sound ([2]; 303.15 K, x1 = 0.9081) was 1775 ± 14 m/s and the mass density ([2]; 303.15 K, x1 = 0.9512) was 1314.5 ± 2.5 kg/m3. The speed of sound ([2]; 303.15 K, x1 = 0.9512) was 1788 ± 14 m/s, the mass density ([2]; 303.15 K, x1 = 1) was 1323.7 ± 2.7 kg/m3 and the speed of sound ([2]; 303.15 K, x1 = 1) was 1801 ± 14 m/s.

For CCCCn1cc[n+](C)c1.F[P-](F)(F)(F)(F)F [1-butyl-3-methylimidazolium hexafluorophosphate], the refractive index ([3]; 293.15 K) was 1.41069 ± 0.0013, the refractive index ([3]; 298.15 K) was 1.40937 ± 0.0013 and the refractive index ([3]; 303.15 K) was 1.40808 ± 0.0013. For the same molecule, the mass density ([4]; 293.15 K) was 1371.6 ± 2.9 kg/m3, the speed of sound ([4]; 293.15 K) was 1455 ± 12 m/s and the mass density ([4]; 298.15 K) was 1367.3 ± 2.9 kg/m3. The speed of sound ([4]; 298.15 K) was 1443 ± 12 m/s, the mass density ([4]; 303.15 K) was 1363 ± 2.9 kg/m3 and the speed of sound ([4]; 303.15 K) was 1431 ± 12 m/s.
